Data from the kinase profiling compilation of Christmann-Franck et al. (2016).
Where “and” joins values, the source holds several entries; their conditions need not be identical. Equal values may be shown once.

Legend:
Conditions in all cases: compound 10.0 µM
ABL1 (human) = ABL1 (human) (UniProt P00519)
ABL2 (human) = ABL2 (human) (UniProt P42684)
CAMK2D (human) = CAMK2D (human) (UniProt Q13557)
CDC42BPA (human) = CDC42BPA (human) (UniProt Q5VT25)
CDC42BPB (human) = CDC42BPB (human) (UniProt Q9Y5S2)
CDK2 CCNA2 (human) = CDK2 CCNA2 (human) (UniProt P24941+P20248)
CDK2 CCNE1 (human) = CDK2 CCNE1 (human) (UniProt P24864+P24941)
CDK5 CDK5R1 p25 (human) = CDK5 CDK5R1 p25 (human) (UniProt Q15078+Q00535)
Chain of CDK5 CDK5R1 p25 (human) (Q00535 whole entry, looked up): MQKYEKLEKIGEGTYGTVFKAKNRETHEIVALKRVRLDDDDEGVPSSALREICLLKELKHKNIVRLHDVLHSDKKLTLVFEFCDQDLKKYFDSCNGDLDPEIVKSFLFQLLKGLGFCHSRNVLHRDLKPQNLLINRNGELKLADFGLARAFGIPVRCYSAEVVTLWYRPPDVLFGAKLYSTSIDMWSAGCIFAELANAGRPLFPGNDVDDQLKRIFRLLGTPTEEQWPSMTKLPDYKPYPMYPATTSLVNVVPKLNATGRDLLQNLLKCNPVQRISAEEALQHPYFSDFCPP
Chain of CDK5 CDK5R1 p25 (human) (Q15078 whole entry, looked up): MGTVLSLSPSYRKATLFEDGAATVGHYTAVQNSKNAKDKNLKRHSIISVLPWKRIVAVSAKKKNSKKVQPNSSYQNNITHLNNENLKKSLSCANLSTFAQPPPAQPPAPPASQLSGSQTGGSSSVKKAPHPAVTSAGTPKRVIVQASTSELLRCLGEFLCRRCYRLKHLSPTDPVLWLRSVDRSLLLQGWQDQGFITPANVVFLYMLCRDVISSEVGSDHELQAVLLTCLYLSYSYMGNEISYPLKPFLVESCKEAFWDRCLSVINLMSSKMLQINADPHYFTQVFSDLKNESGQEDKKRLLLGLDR

CDK9 CCNT1 (human) = CDK9 CCNT1 (human) (UniProt O60563+P50750)
CSNK1A1 (human) = CSNK1A1 (human) (UniProt P48729)
CSNK1D (human) = CSNK1D (human) (UniProt P48730)
CSNK2A1 (human) = CSNK2A1 (human) (UniProt P68400)
DMPK (human) = DMPK (human) (UniProt Q09013)
DYRK1A (human) = DYRK1A (human) (UniProt Q13627)
DYRK4 (human) = DYRK4 (human) (UniProt Q9NR20)
EPHA3 (human) = EPHA3 (human) (UniProt P29320)
EPHA4 (human) = EPHA4 (human) (UniProt P54764)
FLT3 (human) = FLT3 (human) (UniProt P36888)
FLT4 (human) = FLT4 (human) (UniProt P35916)
GRK7 (human) = GRK7 (human) (UniProt Q8WTQ7)
HCK (human) = HCK (human) (UniProt P08631)
HIPK2 (human) = HIPK2 (human) (UniProt Q9H2X6)
IKBKB (human) = IKBKB (human) (UniProt O14920)
Chain of IKBKB (human) (O14920 whole entry, looked up): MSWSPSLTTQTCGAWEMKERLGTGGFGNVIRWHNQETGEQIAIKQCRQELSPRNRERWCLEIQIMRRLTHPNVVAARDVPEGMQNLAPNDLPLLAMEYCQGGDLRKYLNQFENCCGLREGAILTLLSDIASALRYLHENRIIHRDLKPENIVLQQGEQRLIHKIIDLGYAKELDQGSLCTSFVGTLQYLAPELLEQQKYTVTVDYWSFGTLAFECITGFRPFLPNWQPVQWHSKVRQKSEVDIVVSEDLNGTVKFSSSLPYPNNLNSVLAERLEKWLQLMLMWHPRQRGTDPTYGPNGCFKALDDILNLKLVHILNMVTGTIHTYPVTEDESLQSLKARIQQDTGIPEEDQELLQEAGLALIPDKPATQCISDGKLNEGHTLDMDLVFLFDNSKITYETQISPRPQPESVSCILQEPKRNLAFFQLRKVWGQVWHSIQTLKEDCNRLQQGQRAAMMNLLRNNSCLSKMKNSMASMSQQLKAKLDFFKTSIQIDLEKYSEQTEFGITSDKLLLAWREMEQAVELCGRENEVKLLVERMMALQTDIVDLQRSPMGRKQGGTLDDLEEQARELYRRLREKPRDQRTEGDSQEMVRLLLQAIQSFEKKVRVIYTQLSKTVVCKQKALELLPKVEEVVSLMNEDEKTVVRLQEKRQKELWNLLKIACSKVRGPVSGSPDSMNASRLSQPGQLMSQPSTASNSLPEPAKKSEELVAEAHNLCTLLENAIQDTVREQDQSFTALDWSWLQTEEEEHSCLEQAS

JAK1 JH1 JH2 (human) = JAK1 JH1 JH2 (human) (UniProt P23458)
MAP3K7 (human) = MAP3K7 (human) (UniProt O43318)
MAP4K2 (human) = MAP4K2 (human) (UniProt Q12851)
MAPK10 (human) = MAPK10 (human) (UniProt P53779)
MAPK14 (human) = MAPK14 (human) (UniProt Q16539)
MAPK8 (human) = MAPK8 (human) (UniProt P45983)
MAPKAPK2 (human) = MAPKAPK2 (human) (UniProt P49137)
MATK (human) = MATK (human) (UniProt P42679)
NEK11 (human) = NEK11 (human) (UniProt Q8NG66)
NLK (human) = NLK (human) (UniProt Q9UBE8)
NTRK1 (human) = NTRK1 (human) (UniProt P04629)
PBK (human) = PBK (human) (UniProt Q96KB5)
Chain of PBK (human) (Q96KB5 whole entry, looked up): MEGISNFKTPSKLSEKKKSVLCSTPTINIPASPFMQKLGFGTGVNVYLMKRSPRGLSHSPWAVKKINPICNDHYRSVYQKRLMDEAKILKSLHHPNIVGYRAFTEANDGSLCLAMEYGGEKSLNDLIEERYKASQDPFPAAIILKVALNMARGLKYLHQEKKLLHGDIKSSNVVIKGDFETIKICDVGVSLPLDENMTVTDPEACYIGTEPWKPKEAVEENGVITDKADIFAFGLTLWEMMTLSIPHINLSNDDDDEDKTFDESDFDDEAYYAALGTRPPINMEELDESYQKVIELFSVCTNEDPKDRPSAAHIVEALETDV

PKN2 (human) = PKN2 (human) (UniProt Q16513)
Chain of PKN2 (human) (Q16513 whole entry, looked up): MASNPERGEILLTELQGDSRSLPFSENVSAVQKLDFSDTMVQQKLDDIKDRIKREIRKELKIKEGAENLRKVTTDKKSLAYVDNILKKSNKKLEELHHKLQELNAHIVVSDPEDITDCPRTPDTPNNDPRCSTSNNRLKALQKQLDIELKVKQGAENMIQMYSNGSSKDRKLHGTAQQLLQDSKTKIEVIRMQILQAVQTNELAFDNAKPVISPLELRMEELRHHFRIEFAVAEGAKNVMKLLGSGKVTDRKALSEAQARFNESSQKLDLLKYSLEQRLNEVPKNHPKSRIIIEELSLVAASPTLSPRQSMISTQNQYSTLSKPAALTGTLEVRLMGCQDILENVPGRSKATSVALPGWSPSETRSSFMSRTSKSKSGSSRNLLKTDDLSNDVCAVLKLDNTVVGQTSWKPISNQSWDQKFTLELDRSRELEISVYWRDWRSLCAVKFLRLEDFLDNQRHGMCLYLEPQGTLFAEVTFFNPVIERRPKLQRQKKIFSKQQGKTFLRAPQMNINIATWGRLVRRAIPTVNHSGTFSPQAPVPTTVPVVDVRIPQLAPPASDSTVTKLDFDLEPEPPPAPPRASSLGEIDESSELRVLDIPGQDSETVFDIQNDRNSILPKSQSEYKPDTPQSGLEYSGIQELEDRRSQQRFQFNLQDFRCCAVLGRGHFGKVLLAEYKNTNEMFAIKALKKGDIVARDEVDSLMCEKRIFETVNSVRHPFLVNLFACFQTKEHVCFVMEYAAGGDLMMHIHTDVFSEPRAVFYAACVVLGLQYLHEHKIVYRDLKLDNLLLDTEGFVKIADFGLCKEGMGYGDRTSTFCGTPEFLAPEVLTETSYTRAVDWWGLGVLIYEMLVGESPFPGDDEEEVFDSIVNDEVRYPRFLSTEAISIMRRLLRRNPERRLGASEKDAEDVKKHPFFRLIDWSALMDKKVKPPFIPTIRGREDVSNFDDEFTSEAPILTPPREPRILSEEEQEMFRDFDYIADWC

PRKCG (human) = PRKCG (human) (UniProt P05129)
PRKD1 (human) = PRKD1 (human) (UniProt Q15139)
PRKG1 (human) = PRKG1 (human) (UniProt Q13976)
Chain of PRKG1 (human) (Q13976 whole entry, looked up): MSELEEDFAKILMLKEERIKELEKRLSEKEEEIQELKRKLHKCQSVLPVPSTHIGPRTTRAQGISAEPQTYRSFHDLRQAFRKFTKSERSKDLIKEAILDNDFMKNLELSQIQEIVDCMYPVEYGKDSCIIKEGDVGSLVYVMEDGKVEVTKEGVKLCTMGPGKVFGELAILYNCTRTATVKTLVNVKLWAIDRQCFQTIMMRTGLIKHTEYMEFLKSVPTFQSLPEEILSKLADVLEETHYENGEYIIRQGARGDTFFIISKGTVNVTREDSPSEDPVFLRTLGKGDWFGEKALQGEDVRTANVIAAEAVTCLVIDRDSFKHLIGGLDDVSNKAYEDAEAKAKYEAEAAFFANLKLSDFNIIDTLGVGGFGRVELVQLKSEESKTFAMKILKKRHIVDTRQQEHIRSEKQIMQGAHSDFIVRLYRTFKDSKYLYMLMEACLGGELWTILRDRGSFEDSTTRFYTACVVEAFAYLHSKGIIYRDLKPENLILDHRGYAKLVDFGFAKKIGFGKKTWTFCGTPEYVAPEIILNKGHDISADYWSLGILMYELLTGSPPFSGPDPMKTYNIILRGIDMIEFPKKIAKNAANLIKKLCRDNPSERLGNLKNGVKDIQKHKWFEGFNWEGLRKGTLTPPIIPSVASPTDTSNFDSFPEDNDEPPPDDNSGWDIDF

RPS6KA5 KD1 KD2 (human) = RPS6KA5 KD1 KD2 (human) (UniProt O75582)
SGK2 (human) = SGK2 (human) (UniProt Q9HBY8)
SRPK2 (human) = SRPK2 (human) (UniProt P78362)
TBK1 (human) = TBK1 (human) (UniProt Q9UHD2)

Chain of CDC42BPA (human) (Q5VT25 whole entry, looked up): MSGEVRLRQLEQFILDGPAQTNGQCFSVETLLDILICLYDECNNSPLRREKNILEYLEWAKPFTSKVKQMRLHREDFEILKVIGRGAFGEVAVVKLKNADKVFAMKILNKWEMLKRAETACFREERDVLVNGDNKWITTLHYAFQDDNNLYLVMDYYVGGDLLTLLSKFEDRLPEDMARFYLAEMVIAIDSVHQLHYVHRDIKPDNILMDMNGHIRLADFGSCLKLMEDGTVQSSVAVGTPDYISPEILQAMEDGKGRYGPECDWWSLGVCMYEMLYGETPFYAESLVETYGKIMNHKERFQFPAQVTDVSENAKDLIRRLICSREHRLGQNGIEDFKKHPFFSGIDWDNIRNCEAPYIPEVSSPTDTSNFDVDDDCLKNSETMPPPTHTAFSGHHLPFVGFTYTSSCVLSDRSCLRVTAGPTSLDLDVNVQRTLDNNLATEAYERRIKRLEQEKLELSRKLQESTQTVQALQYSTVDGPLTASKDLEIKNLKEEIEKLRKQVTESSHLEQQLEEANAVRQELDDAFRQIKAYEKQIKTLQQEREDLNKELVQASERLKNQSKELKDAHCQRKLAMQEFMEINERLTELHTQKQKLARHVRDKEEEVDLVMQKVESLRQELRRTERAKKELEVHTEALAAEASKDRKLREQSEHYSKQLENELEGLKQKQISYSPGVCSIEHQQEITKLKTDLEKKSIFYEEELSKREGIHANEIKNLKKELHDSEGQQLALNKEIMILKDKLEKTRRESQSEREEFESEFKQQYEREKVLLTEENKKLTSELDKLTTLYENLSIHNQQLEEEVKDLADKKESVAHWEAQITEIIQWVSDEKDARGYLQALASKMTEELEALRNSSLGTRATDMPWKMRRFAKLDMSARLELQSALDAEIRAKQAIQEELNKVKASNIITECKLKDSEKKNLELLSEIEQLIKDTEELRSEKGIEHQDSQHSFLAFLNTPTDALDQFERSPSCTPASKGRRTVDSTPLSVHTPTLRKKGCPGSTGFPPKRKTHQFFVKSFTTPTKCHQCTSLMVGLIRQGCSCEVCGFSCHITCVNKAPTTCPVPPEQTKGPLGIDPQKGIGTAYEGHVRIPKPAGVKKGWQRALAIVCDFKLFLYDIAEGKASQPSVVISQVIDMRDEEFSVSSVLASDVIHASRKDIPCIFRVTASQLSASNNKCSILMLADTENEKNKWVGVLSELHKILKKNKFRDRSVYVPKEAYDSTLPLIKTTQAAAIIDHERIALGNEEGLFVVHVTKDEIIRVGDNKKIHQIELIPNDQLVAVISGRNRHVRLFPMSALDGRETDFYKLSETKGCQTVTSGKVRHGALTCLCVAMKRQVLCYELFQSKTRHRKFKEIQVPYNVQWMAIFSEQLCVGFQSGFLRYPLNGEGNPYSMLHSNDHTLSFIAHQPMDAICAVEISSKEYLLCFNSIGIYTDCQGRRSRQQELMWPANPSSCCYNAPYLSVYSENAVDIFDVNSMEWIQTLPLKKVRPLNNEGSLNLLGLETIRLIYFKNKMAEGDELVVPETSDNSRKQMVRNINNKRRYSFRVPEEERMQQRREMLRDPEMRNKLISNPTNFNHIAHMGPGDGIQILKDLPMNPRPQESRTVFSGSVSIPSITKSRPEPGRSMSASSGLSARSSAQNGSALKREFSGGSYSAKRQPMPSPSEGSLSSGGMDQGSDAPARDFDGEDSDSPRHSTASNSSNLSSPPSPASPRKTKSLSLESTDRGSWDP

residual activity (ABL1 (human)): 84%
residual activity (ABL2 (human)): 88%
residual activity (CAMK2D (human)): 100%
residual activity (CDC42BPA (human)): 100%
residual activity (CDC42BPB (human)): 101%
residual activity (CDK2 CCNA2 (human)): 97%
residual activity (CDK2 CCNE1 (human)): 96%
residual activity (CDK5 CDK5R1 p25 (human)): 97.5%
residual activity (CDK9 CCNT1 (human)): 98%
residual activity (CSNK1A1 (human)): 97%
residual activity (CSNK1D (human)): 100%
residual activity (CSNK2A1 (human)): 110%
residual activity (DMPK (human)): 100%
residual activity (DYRK1A (human)): 95%
residual activity (DYRK4 (human)): 98.5%
residual activity (EPHA3 (human)): 98%
residual activity (EPHA4 (human)): 92%
residual activity (FLT3 (human)): 87.5%
residual activity (FLT4 (human)): 82.5%
residual activity (GRK7 (human)): 97.5%
residual activity (HCK (human)): 101%
residual activity (HIPK2 (human)): 90%
residual activity (IKBKB (human)): 102%
residual activity (JAK1 JH1 JH2 (human)): 97.5%
residual activity (MAP3K7 (human)): 106%
residual activity (MAP4K2 (human)): 91.5%
residual activity (MAPK10 (human)): 105%
residual activity (MAPK14 (human)): 100%
residual activity (MAPK8 (human)): 99.5%
residual activity (MAPKAPK2 (human)): 99%
residual activity (MATK (human)): 95.5%
residual activity (NEK11 (human)): 107%
residual activity (NLK (human)): 95%
residual activity (NTRK1 (human)): 106%
residual activity (PBK (human)): 94%
residual activity (PKN2 (human)): 89.5%
residual activity (PRKCG (human)): 91.5%
residual activity (PRKD1 (human)): 100%
residual activity (PRKG1 (human)): 95% and 90.5%
residual activity (RPS6KA5 KD1 KD2 (human)): 108%
residual activity (SGK2 (human)): 105%
residual activity (SRPK2 (human)): 98.5%
residual activity (TBK1 (human)): 105%
Structure (SMILES): CC[C@H](C)n1cc(C)c2c(C(=O)NCc3c(C)cc(C)[nH]c3=O)cc(-c3ccc(N4CCNCC4)nc3)cc21
